Test results as given in US10030027B2, “Soluble guanylate cyclase stimulators” (MERCK SHARP & DOHME CORP., priority 2015, dated 2018).

Legend:
sGC α1/β1 heterodimer = sGC α1/β1 heterodimer (Homo sapiens (Human), UniProt Q02108+Q02153); experiment: Cell-based sGC functional assay (cyclic GMP assay for sGC activator: CASA assay); design: % Activation: concentration or dose not given beside the values; conditions: CHO-K1/sGC cells; for Emax: CHO-K1, activity expressed as percentage of compound A (standard), read-out: % Activation; for EC50: inflection point, 4P fit, read-out: IP
Summary of the method: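 CHO-K1 cells stably expressing human sGC α1/β1 were pre-incubated 30 min at 25° C with or without 1 μM DETA-NO, then exposed to compound for 1 hr at 37° C with 0.5 mM IBMX and 2.5% DMSO final. Intracellular cGMP was measured by HTRF, expressed as % of reference sGC-HDA maximum; inflection point and maximum fold induction came from 4-parameter fits.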

[1] = target: human recombinant sGC enzyme (Homo sapiens (Human), UniProt Q02108+Q02153); experiment: Size Exclusion Chromatography (SEC) competition binding assay using [3H] Ex-77B as the radioligand; conditions: [3H] Ex-77B radioligand, 24 hours at 37° C.
Summary of the method: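 Recombinant human sGC binding measured by competition against tritiated Ex-77B radioligand, with non-specific binding defined by 1 μM unlabeled Ex-77B.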

| SMILES | Emax (sGC α1/β1 heterodimer) | EC50 (sGC α1/β1 heterodimer) | Ki [1] | % Activation (sGC α1/β1 heterodimer; activity expressed as percentage of compound A (standard)) |
| --- | --- | --- | --- | --- |
| CC(Cc1ccc(C2(C)C(=O)Nc3nc(-c4nn(CCCC(F)(F)F)c5ncccc45)nc(N)c32)cc1)C(=O)O (stereo not shown) [Example 17AB, 3-(4-{4-amino-5-methyl-6-oxo-2-[1-(4,4,4-trifluorobutyl)-1H-pyrazolo[3,4-b]pyridin-3-yl]-6,7-dihydro-5H-pyrrolo[2,3-d]pyrimidin-5-yl}phenyl)-2-methylpropanoic acid] | 77% | 3780 nM | 0.936 nM | – |
| C[C@@]1(c2ccc(CCC(=O)O)cc2)C(=O)Nc2nc(-c3nn(CC4CCCCO4)c4cc(Cl)ccc34)nc(N)c21 (single isomer, unassigned) [Example 6A] | 85% | 1260 nM | 0.13 nM | – |
| CC1(N2CCC(CCC(=O)O)C2)C(=O)Nc2nc(-c3nn(Cc4ccccc4F)c4cc(Cl)ccc34)nc(N)c21 (single isomer, unassigned) [Example 261D, 3-[1-{4-Amino-2-[6-chloro-1-(2-fluorobenzyl)-1H-indazol-3-yl]-5-methyl-6-oxo-6,7-dihydro-5H-pyrrolo[2,3-d]pyrimidin-5-yl}pyrrolidin-3-yl]propanoic acid] | – | 444 nM | 0.187 nM | 103.8% |
| CC(C)(Cn1cc(C2(C)C(=O)Nc3nc(-c4nn(Cc5ccccc5F)c5cc(Cl)ccc45)nc(N)c32)nn1)C(=O)O (single isomer, unassigned) [Example 140A, 3-(4-{4-Amino-2-[6-chloro-1-(2-fluorobenzyl)-1H-indazol-3-yl]-5-methyl-6-oxo-6,7-dihydro-5H-pyrrolo[2,3-d]pyrimidin-5-yl}-1H-1,2,3-triazol-1-yl)-2,2-dimethylpropanoic acid] | – | 798 nM | 0.227 nM | – |
| CC(C)(Cc1csc([C@]2(C)C(=O)Nc3nc(-c4nn(Cc5cccc(F)c5)c5ncccc45)nc(N)c32)n1)C(=O)O [Example 149A, (S)-3-(2-{4-amino-2-[1-(3-fluoro-benzyl)-1H-pyrazolo [3,4-b]pyridin-3-yl]-5-methyl-6-oxo-6,7-dihydro-5H-pyrrolo[2,3-d]pyrimidin-5-yl}-1,3-thiazol-4-yl)-2,2-dimethyl-propanoic acid] | 103% | 111 nM | 0.167 nM | – |
| CC1(c2nn(CC(=O)O)c(=O)o2)C(=O)Nc2nc(-c3nn(CCC(F)(F)C(F)(F)F)c4cc(Cl)ccc34)nc(N)c21 (stereo not shown) [Example 98A, [5-{4-Amino-2-[6-chloro-1-(3,3,4,4,4-pentafluorobutyl)-1H-indazol-3-yl]-5-methyl-6-oxo-6,7-dihydro-5H-pyrrolo[2,3-d]pyrimidin-5-yl}-2-oxo-1,3,4-oxadiazol-3(2H)-yl]acetic acid] | 83% | 254 nM | 0.395 nM | – |
| CC1CCC(Cn2nc(-c3nc(N)c4c(n3)NC(=O)C4(C)c3nc(CC(C)(C)C(=O)O)co3)c3ccc(Cl)cc32)CC1 (single isomer, unassigned) [Example 132AA, 3-{2-[4-amino-2-{6-chloro-1-[4-methylcyclohexylmethyl]-1H-indazol-3-yl}-5-methyl-6-oxo-6,7-dihydro-5H-pyrrolo[2,3-d]pyrimidin-5-yl]-1,3-oxazol-4-yl}-2,2-dimethylpropanoic acid] | 109% | 125 nM | 0.105 nM | – |
| CC(C)(Cc1coc(C2(C)C(=O)Nc3nc(-c4nn(Cc5ccccc5F)c5ncccc45)nc(N)c32)n1)C(=O)O (stereo not shown) [Example 1A, 3-(2-{4-Amino-2-[1-(2-fluorobenzyl)-1H-pyrazolo[3,4-b]pyridin-3-yl]-5-methyl-6-oxo-6,7-dihydro-5H-pyrrolo[2,3-d]pyrimidin-5-yl}oxazol-4-yl)-2,2-dimethylpropanoic acid] | 120% | 409 nM | 0.047 nM | – |
| CC1(c2nc(CC(=O)O)co2)C(=O)Nc2nc(-c3nn(Cc4ccccc4F)c4ccccc34)nc(N)c21 (stereo not shown) [Example 203A, (2-{4-amino-2-[1-(2-fluorobenzyl)-1H-indazol-3-yl]-5-methyl-6-oxo-6,7-dihydro-5H-pyrrolo[2,3-d]pyrimidin-5-yl}-1,3-oxazol-4-yl)acetic acid] | 122% | 330 nM | 0.071 nM | – |
| Cc1ccc(Cn2nc(-c3nc(N)c4c(n3)NC(=O)[C@@]4(C)c3ccc(CCC(=O)O)cc3)c3ccc(Cl)cc32)cc1 [Example 67B, (S)-3-(4-{4-amino-2-[6-chloro-1-(4-methylbenzyl)-1H-indazol-3-yl]-5-methyl-6-oxo-6,7-dihydro-5H-pyrrolo[2,3-d]pyrimidin-5-yl}phenyl)propanoic acid] | 115% | 384 nM | 0.154 nM | – |
| Cc1cccc(Cn2nc(-c3nc(N)c4c(n3)NC(=O)C4(C)c3nc(CC(C)(C)C(=O)O)co3)c3ccccc32)c1F (stereo not shown) [Example 233A, 3-(2-{4-amino-2-[1-(2-fluoro-3-methylbenzyl)-1H-indazol-3-yl]-5-methyl-6-oxo-6,7-dihydro-5H-pyrrolo[2,3-d]pyrimidin-5-yl}-1,3-oxazol-4-yl)-2,2-dimethyl-propanoic acid] | 141% | 204 nM | 0.083 nM | – |
| C[C@@]1(c2ccc(CCC(=O)O)cc2)C(=O)Nc2nc(-c3nn(Cc4c(F)cccc4F)c4cc(Cl)ccc34)nc(N)c21 (single isomer, unassigned) [Example 64B] | 101% | 302 nM | 0.075 nM | – |
| CC(C)(Cc1coc(C2(C)C(=O)Nc3nc(-c4nn(Cc5ccc(F)cc5)c5cc(Cl)ccc45)nc(N)c32)n1)C(=O)O (stereo not shown) [Example 173A, 3-(2-{4-amino-2-[6-chloro-1-(4-fluorobenzyl)-1H-indazol-3-yl]-5-methyl-6-oxo-6,7-dihydro-5H-pyrrolo[2,3-d]pyrimidin-5-yl}-1,3-oxazol-4-yl)-2,2-dimethyl-propanoic acid] | 83.4% | 557 nM | 0.252 nM | – |
| CC1(c2ccc(CCc3nn[nH]n3)cn2)C(=O)Nc2nc(-c3nn(Cc4ccccc4F)c4cc(Cl)ccc34)nc(N)c21 (single isomer, unassigned) [Example 247A, 5-{5-[2-(2H-tetrazol-5-yl)ethyl]pyridin-2-yl}-4-amino-2-[6-chloro-1-(2-fluorobenzyl)-1H-indazol-3-yl]-5-methyl-5,7-dihydro-6H-pyrrolo[2,3-d] pyrimidin-6-one] | – | 4020 nM | 0.242 nM | – |
| CC(C)(Cc1coc(C2(C)C(=O)Nc3nc(-c4nn(Cc5cccc(F)c5)c5ncccc45)nc(N)c32)n1)C(=O)O (stereo not shown) [Example 150A, 3-(2-{4-amino-2-[1-(3-fluoro-benzyl)-1H-pyrazolo [3,4-b]pyridin-3-yl]-5-methyl-6-oxo-6,7-dihydro-5H-pyrrolo[2,3-d]pyrimidin-5-yl}-1,3-oxazol-4-yl)-2,2-dimethyl-propanoic acid] | 102% | 294 nM | 0.096 nM | – |
| CC(C)(Cc1coc(C2(C)C(=O)Nc3nc(-c4nn(CC5CCCCC5)c5ncccc45)nc(N)c32)n1)C(=O)O (stereo not shown) [Example 152A, 3-(2-{4-amino-2-[1-(cyclohexyl-methyl)-1H-pyrazolo[3,4-b]pyridin-3-yl]-5-methyl-6-oxo-6,7-dihydro-5H-pyrrolo[2,3-d]pyrimidin-5-yl}-1,3-oxazol-4-yl)-2,2-dimethyl-propanoic acid] | 118% | 120 nM | 0.031 nM | – |
